PMC4255739 (Journal of Medicinal Chemistry, 2014)

Key:
[1] = tested on: MMP-8; settings: read-out: IC50 MMP-8; antitarget selectivity; cited from earlier work
[2] = tested on: MMP-1; settings: read-out: IC50 MMP-1; antitarget selectivity; cited from earlier work
[3] = molecular target: T1, MMP-13 (Homo sapiens, UniProt P45452); experiment: Single inhibitor kinetics, MMP-13 hydrolysis of fTHP-15; type: biochemical
[4] = molecular target: T1, MMP-13; experiment: Dual inhibition kinetics; type: biochemical
[5] = molecular target: CYP3A4 (Homo sapiens, UniProt P08684); experiment: CYP450 panel inhibition, CYP3A4; settings: human liver microsomes, pH 7.4, probe testosterone
[6] = molecular target: T1, MMP-13; experiment: Cartilage explant assay; type: biochemical; settings: read-out: inhibition of cartilage degradation
[7] = molecular target: T2, cathepsin K (Homo sapiens, UniProt P43235); experiment: Protease profiling panel, cathepsin K; type: biochemical; settings: read-out: highest inhibitory activity against cathepsin K
T2 sequence (P43235 115-329): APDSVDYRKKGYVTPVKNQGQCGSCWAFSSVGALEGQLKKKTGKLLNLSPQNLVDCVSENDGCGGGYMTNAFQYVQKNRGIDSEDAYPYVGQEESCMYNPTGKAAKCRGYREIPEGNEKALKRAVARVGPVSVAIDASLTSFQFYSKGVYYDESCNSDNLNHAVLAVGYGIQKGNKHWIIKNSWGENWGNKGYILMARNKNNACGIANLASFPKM

[8] = molecular target: T3, caspase 5 (Homo sapiens, UniProt P51878); experiment: Protease profiling panel, caspase 5; type: biochemical; settings: 20 μM to 0.1 nM range
T3 sequence (P51878 138-434 limits assumed): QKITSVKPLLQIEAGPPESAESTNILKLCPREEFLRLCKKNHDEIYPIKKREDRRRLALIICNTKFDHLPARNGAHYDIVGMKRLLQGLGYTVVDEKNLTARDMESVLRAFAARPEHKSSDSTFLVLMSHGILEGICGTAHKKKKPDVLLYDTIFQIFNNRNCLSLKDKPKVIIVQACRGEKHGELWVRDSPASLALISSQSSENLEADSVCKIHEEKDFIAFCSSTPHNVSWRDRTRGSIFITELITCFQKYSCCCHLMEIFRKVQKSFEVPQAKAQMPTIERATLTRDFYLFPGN

CYP3A4, sequence (P08684 whole entry): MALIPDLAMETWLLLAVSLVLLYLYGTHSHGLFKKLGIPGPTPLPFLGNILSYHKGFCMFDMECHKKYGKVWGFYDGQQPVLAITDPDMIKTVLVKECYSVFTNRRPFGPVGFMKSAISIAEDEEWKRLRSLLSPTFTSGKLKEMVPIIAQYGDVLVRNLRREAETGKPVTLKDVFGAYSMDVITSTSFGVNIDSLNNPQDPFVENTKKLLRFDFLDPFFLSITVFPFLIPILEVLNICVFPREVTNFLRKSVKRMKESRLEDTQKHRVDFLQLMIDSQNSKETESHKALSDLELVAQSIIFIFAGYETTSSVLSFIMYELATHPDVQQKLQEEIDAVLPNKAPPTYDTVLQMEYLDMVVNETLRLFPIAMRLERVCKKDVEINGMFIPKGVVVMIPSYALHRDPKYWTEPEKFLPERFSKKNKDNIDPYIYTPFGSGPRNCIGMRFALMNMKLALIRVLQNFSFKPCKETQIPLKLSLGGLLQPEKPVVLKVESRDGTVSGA

In the case of `COC(=O)c1ccc(CSc2nc3c(c(=O)[nH]2)CCC3)cc1` [Compound 3], the IC50 [1] is listed as greater than 40 µM and the IC50 [2] is listed as greater than 40 µM.

For `CC(=O)NO` [Compound 6, N-hydroxyacetamide], the pKi ([3]; from fTHP-15 Ki) was 2.9 and the Ki ([3]; read-out: fTHP-15 Ki, fTHP-15 substrate, mixed inhibition model, nonlinear regression) was 1190 µM.

With `Oc1nc(SCc2ccc(Cl)cc2)nc2c1CCC2` [Compound 1] the “B value (Yonetani–Theorell)” value ([4]; 1 (0–2 μM) in combination with 6 (AHA, 0–1.25 mM), B<1 = synergistic binding) was less than 1, the “B value (Yonetani–Theorell)” value ([4]; 1 in combination with 4, B<1 = positive cooperativity) was less than 1 and the “B value (Yonetani–Theorell)” value ([4]; 1 in combination with 5, B<1 = synergistic binding) was less than 1. The inhibition at 20 µM [5] was 14% and the inhibition at 10 µM [6] was 69 ± 17%.

In the case of `Cc1ccc(CSc2nc(O)c3c(n2)CCC3)cc1` [Compound 2], the inhibition at 20 µM [5] is given as 20%, the inhibition at 20 µM [7] is given as 20% and the IC50 [1] is given as greater than 40 µM. The “activity against caspase 5 on inspection of dose response” value [8] was “artifactual” and the IC50 [2] was greater than 40 µM.
